Measurements: patent US20070275967A1, “Pyrazolinols” (BAYER CROPSCIENCE AKTIENGESELLSCHAFT, priority 2003, published 2007)

Experiments:
[1] = tested on: green peach aphid (Myzus persicae); experiment: Myzus test (spray treatment); type: in vivo; conditions: for activity (kill of aphids): Chinese cabbage disks infested by all stages of Myzus persicae, sprayed, result in words; for pest or weed control at 500 g/ha: active compound concentration 500 g/ha
Protocol: Myzus Test (Spray Treatment) [table] To produce a suitable preparation of active compound, 1 part by weight of active compound is mixed with the stated amounts of solvents and emulsifier, and the concentrate is diluted with emulsifier-containing water to the desired concentration. Disks of Chinese cabbage (Brassica pekinensis) which are infested by all stages of the green peach aphid (Myzus persicae) are sprayed with a preparation of active compound of the desired concentration. After the desired period of time, the activity in % is determined. 100% means that all aphids have been killed; 0% means that none of the aphids have been killed.

[2] = tested on: greenhouse red spidermite (Tetranychus urticae); experiment: Tetranychus test (OP-resistant/spray treatment); type: in vivo; conditions: for pest or weed control at 100 g/ha / pest or weed control at 500 g/ha: Tetranychus urticae, 120 h, after 5 d, OP-resistant, spray treatment, read-out: Kill rate in % after 5 d; for pest or weed control at 100 g/ha: active compound concentration 100 g/ha; for activity (kill of spidermites): bean leaf disks infested by all stages of Tetranychus urticae (OP-resistant), sprayed, result in words; for pest or weed control at 500 g/ha: active compound concentration 500 g/ha
Protocol: Tetranychus Test (OP-Resistant/Spray Treatment)
To produce a suitable preparation of active compound, 1 part by weight of active compound is mixed with the stated amounts of solvents and emulsifier, and the concentrate is diluted with emulsifier-containing water to the desired concentration.
Disks of bean leaves (Phaseolus vulgaris) which are infested by all stages of the greenhouse red spidermite (Tetranychus urticae) are sprayed with a preparation of active compound of the desired concentration.
After the desired period of time, the activity in % is determined. 100% means that all spidermites have been killed; 0% means that none of the spidermites have been killed.

[3] = tested on: caterpillars of the armyworm (Spodoptera frugiperda); experiment: Spodoptera frugiperda test (spray treatment); type: in vivo; conditions: for pest or weed control at 500 g/ha: Spodoptera frugiperda, 168 h, active compound concentration 500 g/ha, after 7 d, spray treatment, read-out: Kill rate in % after 7 d; for activity (kill of caterpillars): corn leaf disks sprayed, populated with Spodoptera frugiperda caterpillars, result in words
Protocol: Spodoptera Frugiperda Test (Spray Treatment) [table] To produce a suitable preparation of active compound, 1 part by weight of active compound is mixed with, the stated amounts of solvents and emulsifier, and the concentrate is diluted with emulsifier-containing water to the desired concentration. Disks of corn leaves (Zea mays) are sprayed with a preparation of active compound of the desired concentration and, after they have dried, populated with caterpillars of the armyworm (Spodoptera frugiperda). After the desired period of time, the activity in % is determined. 100% means that all caterpillars have been killed; 0% means that none of the caterpillars have been killed.

[4] = logP determination by HPLC on reversed-phase column (EEC Directive 79/831 Annex V.A8); type: physicochemical; conditions: reversed-phase C18 HPLC column; acidic range (pH 2.3), marked a); 0.1% aqueous phosphoric acid/acetonitrile gradient; reversed-phase C 18; 43° C.
Protocol: The logP values given in the table were determined in accordance with EEC Directive 79/831 Annex V.A8 by HPLC (High Performance Liquid Chromatography) on a reversed-phase column (C 18). Temperature: 43° C. (a) Mobile phases for the determination in the acidic range (pH 2.3): 0.1% aqueous phosphoric acid, acetonitrile; linear gradient from 10% acetonitrile to 90% acetonitrile—the corresponding measurement results in table 1 are marked a). (b) Mobile phases for the determination in the neutral range (pH 7.5): 0.01-molar aqueous phosphate buffer solution, acetonitrile; linear gradient from 10% acetonitrile to 90% acetonitrile—the corresponding measurement results in table 1 are marked b). Calibration was carried out using unbranched alkan-2-ones (having 3 to 16 carbon atoms) with known logP values (determination of the logP values by the retention times using linear interpolation between two successive alkanones).

[5] = tested on: larvae of the mustard beetle (Phaedon cochleariae); experiment: Phaedon test (spray treatment); type: in vivo; conditions: for activity (kill of beetle larvae): Chinese cabbage disks sprayed, populated with Phaedon cochleariae larvae, result in words; for pest or weed control at 500 g/ha: Phaedon cochleariae, 168 h, active compound concentration 500 g/ha, after 7 d, spray treatment, read-out: Kill rate in % after 7 d
Protocol: Phaedon Test (Spray Treatment) [table] To produce a suitable preparation of active compound, 1 part by weight of active compound is mixed with the stated amounts of solvents and emulsifier, and the concentrate is diluted with emulsifier-containing water to the desired concentration. Disks of Chinese cabbage (Brassica pekinensis) are sprayed with a preparation of active compound of the desired concentration and, once they have dried, populated with larvae of the mustard beetle (Phaedon cochleariae). After the desired period of time, the activity in % is determined. 100% means that all beetle larvae have been killed; 0% means that none of the beetle larvae have been killed.

Meloidogyne incognita = experiment: Meloidogyne test (nematicidal action by gall formation on lettuce roots); type: in vivo; conditions: for nematicidal action (formation of galls): Meloidogyne incognita egg/larvae suspension, lettuce, sand, result in words; for pest or weed control at 20 ppm: Meloidogyne incognita, 336 h, active compound concentration 20 ppm, after 14 d, nematicidal action by gall formation, read-out: Effect in % after 14 d
Protocol: Meloidogyne Test [table] To produce a suitable preparation of active compound, 1 part by weight of active compound is mixed with the stated amounts of solvent and emulsifier, and the concentrate is diluted with water to the desired concentration. Containers are filled with sand, solution of active compound, Meloidogyne incognita egg/larvae suspension and lettuce seeds. The lettuce seeds germinate and the plants develop. On the roots, galls are formed. After the desired period of time, the nematicidal action is determined in % by the formation of galls. 100% means that no galls were found; 0% means that the number of galls on the treated plants corresponds to that of the untreated control.

[6] = tested on: Adults of Ctenocephalides felis; experiment: Test with cat fleas/oral uptake; type: in vivo; conditions: for Kill rate in % after 2 d: active compound concentration 100 ppm, oral uptake; for mortality of fleas: oral uptake from citrated cattle blood, at least 75% kill within 48 h judged effective, result in words
Protocol: Test with Cat Fleas/Oral Uptake
Ctenocephalides Felis (Oral)
To produce a suitable formulation, a suitable solution of active compound is prepared from 10 mg of active compound and 0.5 ml of DMSO. 10 μl of this formulation are added to 2 ml of citrated cattle blood and stirred.
20 unfed adult fleas (Ctenocephalides felis, strain “Georgi”) are placed into a chamber (Ø 5 cm) whose top and bottom are closed with gauze. A metal cylinder whose underside is covered with parafilm is placed onto the chamber. The cylinder contains the 2 ml of blood/active compound formulation which can be taken up by the fleas through the parafilm membrane. Whereas the blood is warmed to 37° C., the temperature in the area of the flea chambers is adjusted to room temperature. Controls are mixed with the same volume of DMSO, without addition of a compound.
After 24 h and 48 h, the mortality in % is determined.
Compounds which effect an at least 75% kill of the fleas within 48 h are judged to be effective.

[7] = Myzus persicae, 120 h, after 5 d, spray treatment, read-out: Kill rate in % after 5 d

chromatographic logP [4]	SMILES	activity (kill of aphids) [1]	pest or weed control at 500 g/ha [1, 7] [%]	pest or weed control at 500 g/ha [3] [%]	activity (kill of caterpillars) [3]	activity (kill of beetle larvae) [5]	pest or weed control at 500 g/ha [5] [%]	nematicidal action (formation of galls) (Meloidogyne incognita)	pest or weed control at 20 ppm (Meloidogyne incognita) [%]	also measured
3.86	CC(C)C1=NN(C(=S)Nc2ccccc2F)C(O)(C(F)(F)F)C1 (stereo not drawn) [Example 1, N-(2-fluorophenyl)-5-hydroxy-3-(i-propyl)-5-trifluoromethyl-4,5-dihydro-1H-pyrazole-1-carbothioamide]	good activity	100	100	good activity	good activity	100	–	–	pest or weed control at 100 g/ha [2]: 90%; activity (kill of spidermites) [2]: good activity
3.47	CCC1=NN(C(=S)Nc2ccc(OC)cc2)C(O)(C(F)(F)F)C1 (stereo not drawn) [Example 14]	–	–	–	–	–	–	good activity	100	–
3.83	COc1ccc(NC(=S)N2N=C(C(C)C)CC2(O)C(F)(F)F)cc1 (stereo not drawn) [Example 19]	–	–	–	–	–	–	good activity	100	–
4.28	CC(C)C1=NN(C(=S)Nc2ccccc2Cl)C(O)(C(F)(F)F)C1 (stereo not drawn) [Example 20]	good activity	100	100	good activity	–	–	–	–	–
4.6	CC(C)CC1=NN(C(=S)Nc2ccccc2Cl)C(O)(C(F)(F)F)C1 (stereo not drawn) [Example 24]	good activity	90	100	good activity	–	–	–	–	pest or weed control at 500 g/ha [2]: 90%; activity (kill of spidermites) [2]: good activity
3.9	CC(C)C1=NN(C(=S)Nc2ccccc2)C(O)(C(F)(F)F)C1 (stereo not drawn) [Example 27]	good activity	100	100	good activity	good activity	100	–	–	pest or weed control at 100 g/ha [2]: 90%; activity (kill of spidermites) [2]: good activity
4.04	CC(C)C1=NN(C(=S)Nc2ccccc2[N+](=O)[O-])C(O)(C(F)(F)F)C1 (stereo not drawn) [Example 31]	good activity	100	100	good activity	good activity	100	–	–	–
4.87	CC(C)C1=NN(C(=S)Nc2cc(Cl)ccc2Cl)C(O)(C(F)(F)F)C1 (stereo not drawn) [Example 33]	good activity	100	–	–	good activity	100	–	–	–
4.58	CC(C)C1=NN(C(=S)NCc2ccccc2Cl)C(O)(C(F)(F)F)C1 (stereo not drawn) [Example 42]	good activity	100	100	good activity	good activity	100	–	–	pest or weed control at 500 g/ha [2]: 100%; activity (kill of spidermites) [2]: good activity
1.45	CC(C)C1=NN(C(=S)NCCN2CCOCC2)C(O)(C(F)(F)F)C1 (stereo not drawn) [Example 43]	–	–	–	–	–	–	good activity	100	–
3.35	CC1=NN(C(=O)Nc2ccc(OC(F)(F)F)cc2)C(O)(C(F)(F)F)C1 (stereo not drawn) [Example 46]	good activity	90	–	–	–	–	–	–	–
4.05	Cc1ccc(NC(=O)N2N=C(C(C)(C)C)CC2(O)C(F)(F)F)cc1 (stereo not drawn) [Example 70]	good activity	–	–	–	–	–	–	–	pest or weed control at 100 g/ha ([1]; Myzus persicae, 120 h, active compound concentration 100 g/ha, after 5 d, spray treatment, read-out: Kill rate in % after 5 d): 100%
2.91	CC1=NN(C(=S)Nc2c(F)cccc2F)C(O)(C(F)(F)F)C1 (stereo not drawn) [Example 100]	–	–	–	–	–	–	good activity	90	–
3	CC1=NN(C(=O)Nc2ccc(Cl)cc2)C(O)(C(F)(F)F)C1 (stereo not drawn) [Example 114]	–	–	–	–	–	–	good activity	90	–
3.26	CC1=NN(C(=O)Nc2ccc(C(F)(F)F)cc2)C(O)(C(F)(F)F)C1 (stereo not drawn) [Example 115]	–	–	–	–	–	–	good activity	100	–
–	CC1=NN(C(=S)Nc2ccc(Cl)cc2)C(O)(C(F)(F)F)C1 (stereo not drawn) [Example 122]	–	–	–	–	–	–	good activity	90	–
–	CC1=NN(C(=S)NCc2ccc(Cl)cc2)C(O)(C(F)(F)F)C1 (stereo not drawn) [Example 123]	–	–	–	–	–	–	good activity	90	–

SMILES	chromatographic logP [4]	activity (kill of aphids) [1]	pest or weed control at 500 g/ha [1, 7] [%]	pest or weed control at 500 g/ha [3] [%]	activity (kill of caterpillars) [3]	activity (kill of beetle larvae) [5]	pest or weed control at 500 g/ha [5] [%]	nematicidal action (formation of galls) (Meloidogyne incognita)	pest or weed control at 20 ppm (Meloidogyne incognita) [%]	also measured
CC(C)C1=NN(C(=S)Nc2c(Cl)cccc2Cl)C(O)(C(F)(F)F)C1 (stereo not drawn) [Example 29]	4	–	–	100	good activity	good activity	100	–	–	Kill rate in % after 2 d [6]: 100%; mortality of fleas [6]: good activity
CC(C)C1=NN(C(=S)Nc2ccc(Cl)cc2Cl)C(O)(C(F)(F)F)C1 (stereo not drawn) [Example 34]	4.91	–	–	–	–	good activity	100	–	–	pest or weed control at 500 g/ha [2]: 100%; activity (kill of spidermites) [2]: good activity; Kill rate in % after 2 d [6]: 100%; mortality of fleas [6]: good activity
